Legend:
[1] = target: T1, Progesterone receptor (Homo sapiens) (UniProt P06401); test: Efficacy as a function of maximal inhibition against human progesterone receptor B (hPR-B).
T1 sequence (whole entry): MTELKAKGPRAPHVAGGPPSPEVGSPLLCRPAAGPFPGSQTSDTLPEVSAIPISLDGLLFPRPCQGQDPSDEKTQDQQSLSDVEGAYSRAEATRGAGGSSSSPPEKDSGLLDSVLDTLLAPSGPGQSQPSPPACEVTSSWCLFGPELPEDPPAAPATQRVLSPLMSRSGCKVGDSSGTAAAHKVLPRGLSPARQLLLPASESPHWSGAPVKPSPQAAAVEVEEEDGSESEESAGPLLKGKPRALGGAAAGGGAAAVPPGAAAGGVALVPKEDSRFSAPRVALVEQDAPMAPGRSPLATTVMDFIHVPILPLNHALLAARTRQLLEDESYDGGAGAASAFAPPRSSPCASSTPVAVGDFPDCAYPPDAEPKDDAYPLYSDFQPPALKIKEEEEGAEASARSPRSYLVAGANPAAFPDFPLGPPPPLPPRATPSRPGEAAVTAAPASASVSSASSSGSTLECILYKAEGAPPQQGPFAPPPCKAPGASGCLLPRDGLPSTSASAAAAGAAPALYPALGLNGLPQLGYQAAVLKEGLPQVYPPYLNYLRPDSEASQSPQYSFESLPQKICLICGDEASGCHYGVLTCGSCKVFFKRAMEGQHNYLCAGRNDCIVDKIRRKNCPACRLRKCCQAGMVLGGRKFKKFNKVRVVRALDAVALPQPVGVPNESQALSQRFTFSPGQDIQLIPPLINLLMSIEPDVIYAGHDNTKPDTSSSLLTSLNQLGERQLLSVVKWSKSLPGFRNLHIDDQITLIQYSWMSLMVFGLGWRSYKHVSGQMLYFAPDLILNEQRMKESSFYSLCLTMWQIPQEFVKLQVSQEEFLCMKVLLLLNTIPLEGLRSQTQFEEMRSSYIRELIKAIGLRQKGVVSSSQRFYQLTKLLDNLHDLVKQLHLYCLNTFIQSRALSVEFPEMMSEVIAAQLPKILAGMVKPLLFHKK

[2] = target: T2, Androgen receptor (Homo sapiens, UniProt P10275); test: biochemical
T2 sequence (P10275 whole entry): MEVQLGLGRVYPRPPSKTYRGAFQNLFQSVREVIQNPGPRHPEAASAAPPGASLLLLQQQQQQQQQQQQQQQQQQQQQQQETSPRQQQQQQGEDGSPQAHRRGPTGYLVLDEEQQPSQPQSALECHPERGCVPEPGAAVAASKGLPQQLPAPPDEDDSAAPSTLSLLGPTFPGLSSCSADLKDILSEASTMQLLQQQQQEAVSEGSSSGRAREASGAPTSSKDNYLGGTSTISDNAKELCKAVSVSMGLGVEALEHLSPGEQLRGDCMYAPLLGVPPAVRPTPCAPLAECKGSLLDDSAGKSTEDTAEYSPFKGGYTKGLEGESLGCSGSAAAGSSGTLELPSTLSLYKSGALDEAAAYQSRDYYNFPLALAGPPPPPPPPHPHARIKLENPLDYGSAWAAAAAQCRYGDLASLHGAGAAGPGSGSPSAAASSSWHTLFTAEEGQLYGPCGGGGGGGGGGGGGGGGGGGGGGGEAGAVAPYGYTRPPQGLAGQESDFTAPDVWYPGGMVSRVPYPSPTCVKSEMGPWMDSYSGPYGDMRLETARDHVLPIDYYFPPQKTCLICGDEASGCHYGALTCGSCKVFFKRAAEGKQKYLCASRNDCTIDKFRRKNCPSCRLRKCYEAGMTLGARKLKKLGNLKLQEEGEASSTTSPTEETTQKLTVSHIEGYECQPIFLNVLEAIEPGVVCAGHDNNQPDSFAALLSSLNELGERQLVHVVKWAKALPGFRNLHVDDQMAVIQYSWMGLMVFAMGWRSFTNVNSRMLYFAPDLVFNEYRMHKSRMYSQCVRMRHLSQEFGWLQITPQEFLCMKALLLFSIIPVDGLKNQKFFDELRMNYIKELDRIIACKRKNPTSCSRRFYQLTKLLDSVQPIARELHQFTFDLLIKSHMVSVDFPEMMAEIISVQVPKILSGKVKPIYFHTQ
Description: Binding affinity for human androgen receptor in transiently-transfected COS-1 cells.

[3] = target: T3, Progesterone receptor (Homo sapiens, UniProt P06401); test: Antagonistic activity against human progesterone receptor B (hPR-B) in co-transfected CV-1 cells.; format: functional, cell-based
T3 sequence (P06401 whole entry): T1 sequence (whole entry)

[4] = target: T2, Androgen receptor
Description: Antagonistic activity against human androgen receptor (hAR) in co-transfected CV-1 cells.

SMILES	Efficacy [1]	Ki [2]	IC50 [3]	IC50 [4]
CC1=CC(C)(C)Nc2c1cc1c(C(F)(F)F)cc(O)nc1c2C	88%	–	–	–
CC1(C)C=Cc2cc3c(C(F)(F)F)cc(O)nc3cc2N1	81%	86 nM	390 nM	58 nM
CCC1(C)CCc2cc3c(C(F)(F)F)cc(=O)n(C)c3cc2N1C (stereo not drawn)	92%	10 nM	1100 nM	24 nM
C[C@@H]1c2cc3c(C(F)(F)F)cc(O)nc3cc2NC(C)(C)[C@H]1C	92%	–	735 nM	–
CC1=CC(C)(C)Nc2cc3c(cc21)c(C(F)(F)F)cc(=O)n3C	88%	81 nM	233 nM	34 nM
CC1Cc2cc3c(C(F)(F)F)cc(=O)[nH]c3cc2NC1(C)C (stereo not drawn)	–	73 nM	348 nM	30 nM
CC1(C)Cc2cc3c(C(F)(F)F)cc(O)nc3cc2NC1(C)C	98%	–	–	–
CC1=C(C)C(C)(C)Nc2cc3[nH]c(=O)cc(C(F)(F)F)c3cc21	–	268 nM	393 nM	68 nM
CC12CCCN1c1cc3nc(O)cc(C(F)(F)F)c3cc1CC2 (stereo not drawn)	11%	–	> 10000 nM	–
CC1(C)Cc2cc3c(C(F)(F)F)cc(=O)[nH]c3cc2NC1(C)C	–	189 nM	876 nM	83 nM
C[C@H]1c2cc3c(C(F)(F)F)cc(O)nc3cc2NC(C)(C)[C@H]1C	95%	–	310 nM	–
CC(O)(CS(=O)(=O)c1ccc(F)cc1)C(=O)Nc1ccc(C#N)c(C(F)(F)F)c1 (stereo not drawn) [BICALUTAMIDE]	88%	–	1820 nM	–
CCC1(C)CCc2cc3c(C(F)(F)F)cc(=O)[nH]c3cc2N1 (stereo not drawn)	–	–	543 nM	–
CC1=CC(C)(C)N(C)c2cc3c(cc21)c(C(F)(F)F)cc(=O)n3C	91%	39 nM	136 nM	46 nM
CC1=C(C)C(C)(C)Nc2cc3nc(O)cc(C(F)(F)F)c3cc21	65%	–	–	–
CC1(C)CCc2cc3c(C(F)(F)F)cc(=O)[nH]c3cc2N1	–	–	330 nM	–
CCC1(CC)CCc2cc3c(C(F)(F)F)cc(O)nc3cc2N1	81%	102 nM	2710 nM	27 nM
CC1=CC(C)(C)Nc2cc3[nH]c(=O)cc(C)c3cc21	–	62 nM	109 nM	36 nM
CC1=CC(C)(C)Nc2cc3nc(O)cc(C(F)(F)F)c3cc21	62%	–	–	–
Cn1c(=O)cc(C(F)(F)F)c2cc3c(cc21)N1CCCC1(C)CC3 (stereo not drawn)	84%	–	398 nM	–
CC(C)(O)C(=O)Nc1ccc([N+](=O)[O-])c(C(F)(F)F)c1	90%	–	–	–
CC1CC(C)(C)Nc2cc3nc(O)cc(C(F)(F)F)c3cc21 (stereo not drawn)	86%	–	231 nM	–

SMILES	Efficacy [1]	Ki [2]	IC50 [3]	IC50 [4]
CC(=O)O[C@]1(C(C)=O)CC[C@H]2[C@@H]3C=C(Cl)C4=CC(=O)[C@@H]5C[C@@H]5[C@]4(C)[C@H]3CC[C@@]21C	12%	–	–	–
CN1c2cc3c(cc2CCC1(C)C)c(C(F)(F)F)cc(=O)n3C	85%	17 nM	2200 nM	19 nM
CC1(C)CCc2cc3c(C(F)(F)F)cc(O)nc3cc2N1	80%	–	–	–
Cc1c2c(cc3c(C(F)(F)F)cc(O)nc13)C(C)CC(C)(C)N2 (stereo not drawn)	74%	–	–	–
CCCC1(C)CCc2cc3c(C(F)(F)F)cc(O)nc3cc2N1 (stereo not drawn)	86%	–	–	–
Cc1c2c(cc3c(C(F)(F)F)cc(=O)[nH]c13)C(C)CC(C)(C)N2 (stereo not drawn)	–	85 nM	3730 nM	22 nM
CCn1c(=O)cc(C(F)(F)F)c2cc3c(cc21)NC(C)(C)C=C3C	55%	670 nM	1760 nM	692 nM
CCC1(C)CCc2cc3c(C(F)(F)F)cc(=O)n(C)c3cc2N1 (stereo not drawn)	73%	69 nM	3280 nM	48 nM
CC1=CC(C)(C)Nc2cc3[nH]c(=O)cc(C(F)(F)F)c3cc21	–	–	49 nM	–
CC1=CC(C)(C)N(C)c2cc3nc(O)cc(C(F)(F)F)c3cc21	55%	695 nM	1680 nM	156 nM
CCCC1(C)CCc2cc3c(C(F)(F)F)cc(=O)[nH]c3cc2N1 (stereo not drawn)	–	69 nM	1140 nM	42 nM
CC(C)C1CC(C)(C)Nc2cc3nc(O)cc(C(F)(F)F)c3cc21 (stereo not drawn)	59%	650 nM	3160 nM	159 nM
Cn1c(=O)cc(C(F)(F)F)c2cc3c(cc21)NC(C)(C)CC3	74%	56 nM	1240 nM	36 nM
CCC1Cc2cc3c(C(F)(F)F)cc(O)nc3cc2NC1(C)C (stereo not drawn)	82%	–	–	–
CC1Cc2cc3c(C(F)(F)F)cc(O)nc3cc2NC1(C)C (stereo not drawn)	89%	–	–	–
Oc1cc(C(F)(F)F)c2cc3c(cc2n1)NC1(CCCCC1)CC3	94%	9 nM	1830 nM	35 nM
CC1=CC(C)(C)Nc2c1cc1c(C(F)(F)F)cc(=O)n(C)c1c2C	68%	874 nM	4400 nM	–
CCC1Cc2cc3c(C(F)(F)F)cc(=O)[nH]c3cc2NC1(C)C (stereo not drawn)	–	251 nM	2330 nM	46 nM
Cc1c2c(cc3c(C(F)(F)F)cc(=O)n(C)c13)C(C)CC(C)(C)N2 (stereo not drawn)	79%	40 nM	2930 nM	31 nM
CC1CC(C)(C)Nc2cc3c(cc21)c(C(F)(F)F)cc(=O)n3C (stereo not drawn)	98%	46 nM	585 nM	73 nM
CCC1(C)CCc2cc3c(C(F)(F)F)cc(O)nc3cc2N1 (stereo not drawn)	91%	–	–	–
CC1=CC(C)(C)Nc2cc3nc(O)cc(C)c3cc21	83%	–	–	–

From ChEMBL document CHEMBL1131477, “Synthesis and biological activity of a novel series of nonsteroidal, peripherally selective androgen receptor antagonists derived from 1,2-dihydropyridono[5,6-g]quinolines” (J Med Chem, 1998)
